CS(=O)(=O)OCCCCOS(C)(=O)=O
solubility (mole fraction)
Conditions | 278.15 K | 283.15 K | 288.15 K | 293.15 K | 298.15 K | 303.15 K | 308.15 K | 313.15 K | 318.15 K | 323.15 K
in 2-butoxyethanol | 0.000161 | 0.000208 | 0.000261 | 0.000332 | 0.000417 | 0.000522 | 0.00066 | 0.000811 | 0.00102 | 0.00124
in 2-ethoxyethanol | 0.000166 | 0.000255 | 0.000389 | 0.000587 | 0.000857 | 0.00128 | 0.00179 | 0.00259 | 0.00367 | 0.00511
in 2-methoxyethanol | 0.000446 | 0.000675 | 0.00104 | 0.00149 | 0.0022 | 0.00311 | 0.00438 | 0.00609 | 0.0085 | 0.0118
in 2-propoxyethanol | 0.000168 | 0.000221 | 0.00031 | 0.000398 | 0.00053 | 0.000693 | 0.000905 | 0.00118 | 0.00155 | 0.00196
in DMF | 0.0116 | 0.0151 | 0.0194 | 0.0248 | 0.0317 | 0.0397 | 0.0495 | 0.0611 | 0.076 | 0.0929
in DMSO | – | – | – | – | 0.0367 | 0.0459 | 0.0567 | 0.0695 | 0.0851 | 0.103
in NMP | 0.0172 | 0.0215 | 0.0266 | 0.0328 | 0.0401 | 0.0487 | 0.059 | 0.0713 | 0.0853 | 0.102
in ethanol | 1.55e-05 | 2.49e-05 | 3.95e-05 | 6.08e-05 | 9.34e-05 | 0.000142 | 0.000211 | 0.000315 | 0.00046 | 0.000655
in ethyl acetate | 0.000385 | 0.000575 | 0.00081 | 0.00112 | 0.0016 | 0.00209 | 0.00287 | 0.0038 | 0.00525 | 0.00705
in methanol | 4.32e-05 | 6.97e-05 | 0.000107 | 0.000167 | 0.000251 | 0.000379 | 0.000555 | 0.000813 | 0.00119 | 0.00169
in methyl acetate | 0.000892 | 0.00109 | 0.00179 | 0.00248 | 0.00323 | 0.0045 | 0.00592 | 0.008 | 0.0107 | 0.0145
in n-butanol | 6.8e-06 | 1.09e-05 | 1.72e-05 | 2.66e-05 | 4.22e-05 | 6.35e-05 | 9.25e-05 | 0.000135 | 0.000191 | 0.000276
in n-butyl acetate | 0.000209 | 0.000289 | 0.000402 | 0.000549 | 0.000785 | 0.000962 | 0.00122 | 0.00175 | 0.00218 | 0.00281
in n-propanol | 4.5e-06 | 8e-06 | 1.43e-05 | 2.4e-05 | 4.05e-05 | 6.68e-05 | 0.000107 | 0.000173 | 0.000277 | 0.000444
in n-propyl acetate | 0.00016 | 0.000298 | 0.000468 | 0.000649 | 0.00101 | 0.00137 | 0.00195 | 0.00272 | 0.00386 | 0.00531

Reference: BigSolDB 2.1
